A word on the Kd: it is the equilibrium constant for the complex coming apart. Low values mean higher affinity, high ones lower affinity.

Assay [1] deals with T1, ZmDRIK1 (DROUGHT RESPONSIVE INACTIVE KINASE 1), kinase domain (Zea mays, UniProt C0P4K9).
T1 construct: gene ZEAMMB73_Zm00001d028770; ZmDRIK1-KD R187-S514 (kinase domain)
T1 sequence (C0P4K9 187-514): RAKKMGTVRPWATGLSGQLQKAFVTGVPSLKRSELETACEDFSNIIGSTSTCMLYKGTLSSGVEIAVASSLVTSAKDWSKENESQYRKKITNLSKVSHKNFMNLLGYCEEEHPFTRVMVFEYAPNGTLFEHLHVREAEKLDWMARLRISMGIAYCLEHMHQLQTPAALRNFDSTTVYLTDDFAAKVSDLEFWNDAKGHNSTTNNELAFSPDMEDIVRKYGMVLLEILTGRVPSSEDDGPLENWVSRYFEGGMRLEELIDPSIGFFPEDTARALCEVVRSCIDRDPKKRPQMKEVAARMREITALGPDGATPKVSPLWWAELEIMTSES
In words: ITC; cocrystal structure at […] Å; DSF (ΔTm > […] °C). Type of assay: binding. (In general: ITC needs no label: the signal is the heat of the interaction.)

Assay [2] has as its target T2, ZmDRIK1-R187-P492 (Zea mays, UniProt C0P4K9).
T2 construct: kinase domain, R187-P492
T2 sequence (C0P4K9 1-514): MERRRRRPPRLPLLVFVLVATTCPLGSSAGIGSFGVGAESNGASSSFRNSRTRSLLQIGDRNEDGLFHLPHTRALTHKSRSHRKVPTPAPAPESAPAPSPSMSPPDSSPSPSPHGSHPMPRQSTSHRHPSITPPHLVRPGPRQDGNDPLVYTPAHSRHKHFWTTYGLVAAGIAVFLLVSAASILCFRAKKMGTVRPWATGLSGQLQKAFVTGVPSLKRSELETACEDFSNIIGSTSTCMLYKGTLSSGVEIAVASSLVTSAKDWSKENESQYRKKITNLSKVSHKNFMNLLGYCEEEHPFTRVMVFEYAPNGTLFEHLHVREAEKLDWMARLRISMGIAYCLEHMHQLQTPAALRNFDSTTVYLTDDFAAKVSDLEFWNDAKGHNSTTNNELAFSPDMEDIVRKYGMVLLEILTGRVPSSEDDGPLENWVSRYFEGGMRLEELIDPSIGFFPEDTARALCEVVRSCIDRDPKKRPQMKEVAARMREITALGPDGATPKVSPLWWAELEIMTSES
Put plainly: biochemical. As to conditions: read-out: dTm B, DSF, Boltzmann fit, 0.1% DMSO.

Assay [3] has as its target T3, ZmDRIK1-K217-P492 (Zea mays, UniProt C0P4K9).
T3 construct: kinase domain, K217-P492
T3 sequence (C0P4K9 1-514): T2 sequence (C0P4K9 1-514)
Put plainly: biochemical. Particulars: read-out: dTm B, sheet ZmDRIK1-K217-P492;; DSF, Boltzmann fit, 0.1% DMSO.

For assay [4], the target named is T4, ZmDRIK1-K217-S514 (Zea mays, UniProt C0P4K9).
T4 construct: kinase domain, K217-S514
T4 sequence (C0P4K9 1-514): T2 sequence (C0P4K9 1-514)
Put plainly: biochemical. Particulars: read-out: dTm B, sheet ZmDRIK1-K217-S514;; DSF, Boltzmann fit, 0.1% DMSO.

The target in assay [5] is T1, ZmDRIK1 (DROUGHT RESPONSIVE INACTIVE KINASE 1), kinase domain. Put plainly: biochemical. Particulars: read-out: dTm B, sheet ZmDRIK1-R187-S514;; DSF, Boltzmann fit, 0.1% DMSO.

In turn, `Cc1cc(Nc2cc(N3CCN(C)CC3)nc(/C=C/c3ccccc3)n2)n[nH]1` [ENMD-2076] gave a Kd in assay [1] of 551 nM. In addition, the ΔTm at 10 µM in assay [2] was found to be 4.32 °C; in assay [3], 3.49 °C; in assay [4], 4.13 °C; in assay [5], 4.28 °C.
In the case of `Cn1cc(C2=C(c3cn(C4CCN(Cc5ccccn5)CC4)c4ccccc34)C(=O)NC2=O)c2ccccc21` [Enzastaurin (LY317615)], the ΔTm at 10 µM was -0.261 °C in assay [2], -1.33 °C in assay [3], -0.275 °C in assay [4] and -0.678 °C in assay [5].
In the same order, the values of `COc1cc2ncnc(Nc3ccc(Cl)cc3F)c2cc1OC` [ZM 306416] are -0.383 °C, -0.758 °C, -0.336 °C and -0.525 °C.
For `Cn1cc(-c2ccc3nnc(C(F)(F)c4ccc5ncccc5c4)n3n2)cn1` [JNJ-38877605] the same measures were -0.343 °C, -1 °C, -0.499 °C and -0.758 °C.
For `Cc1ncc(-c2ccnc(Nc3ccc(S(C)(=O)=O)cc3)n2)n1C(C)C` [AZD5438] the same measures were -0.417 °C, -1.24 °C, -0.394 °C and -0.576 °C.

(Values after paper PMC7158045 (BMC Plant Biology, 2020).)
